In patent publication US20240208992A1, “MACROCYCLES AS CFTR MODULATORS” (Idorsia Pharmaceuticals Ltd, priority 2021, published 2024):

Biological target: human F508del-CFTR (Homo sapiens, UniProt P13569, DEL508-508)
Experiment: F508del-CFTR cell surface expression (corrector activity), DiscoveRx ß-galactosidase complementation chemiluminescence assay in recombinant U2OS cell line;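 note: U2OS cells co-expressing ProLink-tagged F508del-CFTR and a membrane-anchored enzyme acceptor, where more surface CFTR restores β-galactosidase activity measured by chemiluminescence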
Conditions: for EC50: EC50, F508del-CFTR cell surface expression, U2OS cells, 16h compound incubation, geomean values; for Emax: in relation to Emax of corrector lumacaftor (=100%), arithmetic mean values

Chain of human F508del-CFTR (P13569 with tags, fused parts or gaps DEL508-508): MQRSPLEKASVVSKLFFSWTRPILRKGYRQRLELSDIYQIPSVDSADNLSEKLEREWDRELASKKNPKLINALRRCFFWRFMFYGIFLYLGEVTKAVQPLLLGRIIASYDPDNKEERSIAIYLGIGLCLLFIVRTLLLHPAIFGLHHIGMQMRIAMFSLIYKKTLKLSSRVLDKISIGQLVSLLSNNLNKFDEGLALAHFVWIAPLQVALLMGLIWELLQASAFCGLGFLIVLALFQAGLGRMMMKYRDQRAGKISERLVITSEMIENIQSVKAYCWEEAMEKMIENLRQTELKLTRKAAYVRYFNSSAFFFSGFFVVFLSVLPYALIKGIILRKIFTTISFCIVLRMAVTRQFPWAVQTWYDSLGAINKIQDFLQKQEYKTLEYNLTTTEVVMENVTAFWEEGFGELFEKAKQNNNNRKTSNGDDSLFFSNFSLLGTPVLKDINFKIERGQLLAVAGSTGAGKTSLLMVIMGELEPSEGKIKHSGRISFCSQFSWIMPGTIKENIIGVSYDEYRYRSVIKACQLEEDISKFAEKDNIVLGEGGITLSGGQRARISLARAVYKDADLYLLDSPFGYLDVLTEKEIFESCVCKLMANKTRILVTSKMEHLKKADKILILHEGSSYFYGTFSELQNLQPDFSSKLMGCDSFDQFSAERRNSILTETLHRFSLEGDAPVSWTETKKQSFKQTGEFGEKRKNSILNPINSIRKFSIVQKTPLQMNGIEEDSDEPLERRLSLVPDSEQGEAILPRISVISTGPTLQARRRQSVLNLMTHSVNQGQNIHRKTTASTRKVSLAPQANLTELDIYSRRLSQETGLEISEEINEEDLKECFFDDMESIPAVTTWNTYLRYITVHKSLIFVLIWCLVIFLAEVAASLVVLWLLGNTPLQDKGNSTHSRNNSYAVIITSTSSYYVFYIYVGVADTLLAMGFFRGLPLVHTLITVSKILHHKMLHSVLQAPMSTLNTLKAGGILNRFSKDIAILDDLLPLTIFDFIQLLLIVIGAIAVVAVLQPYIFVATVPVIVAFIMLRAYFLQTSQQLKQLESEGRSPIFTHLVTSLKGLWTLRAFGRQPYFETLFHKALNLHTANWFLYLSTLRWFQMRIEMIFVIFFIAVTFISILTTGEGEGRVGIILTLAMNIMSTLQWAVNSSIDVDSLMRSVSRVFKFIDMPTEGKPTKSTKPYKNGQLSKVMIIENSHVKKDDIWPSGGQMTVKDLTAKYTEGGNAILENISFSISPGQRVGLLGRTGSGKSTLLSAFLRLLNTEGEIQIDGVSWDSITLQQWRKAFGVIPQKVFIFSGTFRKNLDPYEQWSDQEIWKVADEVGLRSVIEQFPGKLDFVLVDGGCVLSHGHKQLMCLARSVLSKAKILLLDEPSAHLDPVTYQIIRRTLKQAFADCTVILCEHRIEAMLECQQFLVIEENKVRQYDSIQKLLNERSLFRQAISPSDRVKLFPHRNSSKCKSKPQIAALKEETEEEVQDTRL

| SMILES | EC50 | Emax (U2OS) | Emax |
| --- | --- | --- | --- |
| COc1nccc2c1C(=O)N[C@H](C(=O)NCCc1cc(C3CC3)on1)CC(=O)N(C)[C@@H](CC(C)C)C(=O)N1CCCC[C@@H]1C(=O)N[C@H](Cc1ccccc1)CO2 [Example 512, (7S,11S,17aR,20R)-20-benzyl-N-(2-(5-cyclopropylisoxazol-3-yl)ethyl)-11-isobutyl-4-methoxy-10-methyl-5,9,12,18-tetraoxo-5,6,7,8,9,10,11,12,15,16,17,17a,18,19,20,21-hexadecahydro-14H-dipyrido[2,1-f:3′,4′-p][1]oxa[4,7,10,14]tetraazacycloheptadecine-7-carboxamide] | 300 nM | 316% | – |
| COc1cccc(CCNC(=O)[C@@H]2CC(=O)N(C)[C@@H](CC(C)C)C(=O)N(C)CC(=O)N[C@H](Cc3ccccc3)COc3nccc(OC)c3C(=O)N2)c1 [Example 513, (3R,9S,13S)-3-benzyl-9-isobutyl-16-methoxy-N-(3-methoxyphenethyl)-7,10-dimethyl-5,8,11,15-tetraoxo-2,3,4,5,6,7,8,9,10,11,12,13,14,15-tetradecahydropyrido[3,2-p][1]oxa[4,7,10,14]tetraazacycloheptadecine-13-carboxamide] | 815 nM | 169% | – |
| COc1cc2c(cn1)OC[C@@H](Cc1ccccc1)NC(=O)[C@H]1CCCCN1C(=O)[C@H](CC(C)C)N(C)C(=O)C[C@@H](C(=O)NCCc1cc(C3CC3)no1)NC2=O [Example 517, (7S,11S,17aR,20R)-20-benzyl-N-(2-(3-cyclopropylisoxazol-5-yl)ethyl)-11-isobutyl-3-methoxy-10-methyl-5,9,12,18-tetraoxo-5,6,7,8,9,10,11,12,15,16,17,17a,18,19,20,21-hexadecahydro-14H-dipyrido[2,1-f:2′,3′-p][1]oxa[4,7,10,14]tetraazacycloheptadecine-7-carboxamide] | 986 nM | 222% | – |
| COc1cc2c(cn1)OC[C@@H](Cc1ccccc1)NC(=O)[C@H]1CCCCN1C(=O)[C@H](CC(C)C)N(C)C(=O)C[C@@H](C(=O)NCCc1cc(C3CC3)on1)NC2=O [Example 518, (7S,11S,17aR,20R)-20-benzyl-N-(2-(5-cyclopropylisoxazol-3-yl)ethyl)-11-isobutyl-3-methoxy-10-methyl-5,9,12,18-tetraoxo-5,6,7,8,9,10,11,12,15,16,17,17a,18,19,20,21-hexadecahydro-14H-dipyrido[2,1-f:2′,3′-p][1]oxa[4,7,10,14]tetraazacycloheptadecine-7-carboxamide] | 655 nM | – | 189% |
| CC(C)C[C@H]1C(=O)N2CCCC[C@H]2C(=O)N[C@H](Cc2ccccc2)COc2cnc3ccc(F)cc3c2C(=O)N[C@H](C(=O)NCCc2noc(C3CC3)n2)CC(=O)N1C [Example 520, (9S,13S,19aS,22R)-22-benzyl-N-(2-(5-cyclopropyl-1,2,4-oxadiazol-3-yl)ethyl)-5-fluoro-13-isobutyl-12-methyl-7,11,14,20-tetraoxo-7,8,9,10,11,12,13,14,17,18,19,19a,20,21,22,23-hexadecahydro-16H-pyrido[2′,11:6,7][1]oxa[4,7,10,14]tetraazacycloheptadecino[17,16-c]quinoline-9-carboxamide] | 345 nM | 155% | – |
| CC(C)C[C@H]1C(=O)N2CCCC[C@H]2C(=O)N[C@H](Cc2ccccc2)COc2cnc3c(F)cccc3c2C(=O)N[C@H](C(=O)NCCc2ccc(-n3nccn3)cc2)CC(=O)N1C [Example 522, (9S,13S,19aR,22R)-N-(4-(2H-1,2,3-triazol-2-yl)phenethyl)-22-benzyl-3-fluoro-13-isobutyl-12-methyl-7,11,14,20-tetraoxo-7,8,9,10,11,12,13,14,17,18,19,19a,20,21,22,23-hexadecahydro-16H-pyrido[2′,1′:6,7][1]oxa[4,7,10,14]tetraazacycloheptadecino[17,16-c]quinoline-9-carboxamide] | 204 nM | 237% | – |

Next, values leading:

| EC50 | Emax (U2OS) | Emax | SMILES |
| --- | --- | --- | --- |
| 624 nM | 314% | – | COc1nccc2c1C(=O)N[C@H](C(=O)NCCc1nc(C3CC3)no1)CC(=O)N(C)[C@@H](CC(C)C)C(=O)N1CCCC[C@@H]1C(=O)N[C@H](Cc1ccccc1)CO2 [Example 511, (7S,11S,17aR,20R)-20-benzyl-N-(2-(3-cyclopropyl-1,2,4-oxadiazol-5-yl)ethyl)-11-isobutyl-4-methoxy-10-methyl-5,9,12,18-tetraoxo-5,6,7,8,9,10,11,12,15,16,17,17a,18,19,20,21-hexadecahydro-14H-dipyrido[2,1-f:3′,4′-p][1]oxa[4,7,10,14]tetraazacycloheptadecine-7-carboxamide] |
| 170 nM | 304% | – | CC(C)C[C@H]1C(=O)N2CCCC[C@@H]2C(=O)N[C@H](Cc2ccccc2)COc2ccc3ncccc3c2C(=O)N[C@H](C(=O)NCCc2cc(C3CC3)no2)CC(=O)N1C [Example 514, (9S,13S,19aR,22R)-22-benzyl-N-(2-(3-cyclopropylisoxazol-5-yl)ethyl)-13-isobutyl-12-methyl-7,11,14,20-tetraoxo-7,8,9,10,11,12,13,14,17,18,19,19a,20,21,22,23-hexadecahydro-16H-pyrido[2′,11:6,7][1]oxa[4,7,10,14]tetraazacycloheptadecino[16,17-f]quinoline-9-carboxamide] |
| 184 nM | 332% | – | CC(C)C[C@H]1C(=O)N(C)C2(CC2)C(=O)N[C@H](Cc2ccccc2)COc2cnc3ccc(F)cc3c2C(=O)N[C@H](C(=O)NCCc2cc(C3CC3)no2)CC(=O)N1C [Example 519, (3′S,7′S,13′R)-13′-benzyl-N-(2-(3-cyclopropylisoxazol-5-yl)ethyl)-20′-fluoro-7′-isobutyl-6′,9′-dimethyl-1′,5′,8′,11′-tetraoxo-2′,3′,4′,5′,6′,7′,8′,9′,11′,12′,13′,14′-dodecahydro-1′H-spiro[cyclopropane-1,10′-[1]oxa[4,7,10,14]tetraazacycloheptadecino[17,16-c]quinoline]-3′-carboxamide] |
| 433 nM | 191% | – | CC(C)C[C@H]1C(=O)N2CCCC[C@H]2C(=O)N[C@H](Cc2ccccc2)COc2cnc3ccc(F)cc3c2C(=O)N[C@H](C(=O)NCCc2nc(C3CC3)no2)CC(=O)N1C [Example 521, (9S,13S,19aS,22R)-22-benzyl-N-(2-(3-cyclopropyl-1,2,4-oxadiazol-5-yl)ethyl)-5-fluoro-13-isobutyl-12-methyl-7,11,14,20-tetraoxo-7,8,9,10,11,12,13,14,17,18,19,19a,20,21,22,23-hexadecahydro-16H-pyrido[2′,1′:6,7][1]oxa[4,7,10,14]tetraazacycloheptadecino[17,16-c]quinoline-9-carboxamide] |
| 483 nM | 352% | – | COc1nccc2c1C(=O)N[C@H](C(=O)NCCc1cc(C3CC3)no1)CC(=O)N(C)[C@@H](CC(C)C)C(=O)N1CCCC[C@@H]1C(=O)N[C@H](Cc1ccccc1)CO2 [Example 523, (7S,11S,17aR,20R)-20-benzyl-N-(2-(3-cyclopropylisoxazol-5-yl)ethyl)-11-isobutyl-4-methoxy-10-methyl-5,9,12,18-tetraoxo-5,6,7,8,9,10,11,12,15,16,17,17a,18,19,20,21-hexadecahydro-14H-dipyrido[2,1-f:3′,4′-p][1]oxa[4,7,10,14]tetraazacycloheptadecine-7-carboxamide] |
| 60 nM | 339% | – | CC(C)C[C@H]1C(=O)N2CCN(c3ccccc3)C[C@H]2C(=O)N[C@H](Cc2ccccc2)COc2cnc3ccc(F)cc3c2C(=O)N[C@H](C(=O)NCCc2cc(C3CC3)no2)CC(=O)N1C [Example 524, (9S,13S,19aR,22R)-22-benzyl-N-(2-(3-cyclopropylisoxazol-5-yl)ethyl)-5-fluoro-13-isobutyl-12-methyl-7,11,14,20-tetraoxo-18-phenyl-7,8,9,10,11,12,13,14,17,18,19,19a,20,21,22,23-hexadecahydro-16H-pyrazino[2′,11:6,7][1]oxa[4,7,10,14]tetraazacycloheptadecino[17,16-c]quinoline-9-carboxamide] |
| 56 nM | 288% | – | CC(C)C[C@H]1C(=O)N2CCN(c3ccccc3)C[C@H]2C(=O)N[C@H](Cc2ccccc2)COc2cnc3ccc(F)cc3c2C(=O)N[C@H](C(=O)NCCc2nc(C3CC3)no2)CC(=O)N1C [Example 525, (9S,13S,19aR,22R)-22-benzyl-N-(2-(3-cyclopropyl-1,2,4-oxadiazol-5-yl)ethyl)-5-fluoro-13-isobutyl-12-methyl-7,11,14,20-tetraoxo-18-phenyl-7,8,9,10,11,12,13,14,17,18,19,19a,20,21,22,23-hexadecahydro-16H-pyrazino[2′,11:6,7][1]oxa[4,7,10,14]tetraazacycloheptadecino[17,16-c]quinoline-9-carboxamide] |
| 394 nM | – | 167% | COc1cc2c(cn1)OC[C@@H](Cc1ccccc1)NC(=O)[C@H]1CCCCN1C(=O)[C@H](CC(C)C)N(C)C(=O)C[C@@H](C(=O)NCCc1cc(C3CC3)on1)NC2=O [Example 526, (7S,11S,17aR,20R)-20-benzyl-N-(2-(5-cyclopropylisoxazol-3-yl)ethyl)-11-isobutyl-3-methoxy-10-methyl-5,9,12,18-tetraoxo-5,6,7,8,9,10,11,12,15,16,17,17a,18,19,20,21-hexadecahydro-14H-dipyrido[2,1-f:4′,3′-p][1]oxa[4,7,10,14]tetraazacycloheptadecine-7-carboxamide] |
| 151 nM | 318% | – | Cc1cc(CCNC(=O)[C@@H]2CC(=O)N(C)[C@@H](CC(C)C)C(=O)N3CCCC[C@H]3C(=O)N[C@H](Cc3ccccc3)COc3cnc4ccc(Cl)cc4c3C(=O)N2)on1 [Example 527, (9S,13S,19aR,22R)-22-benzyl-5-chloro-13-isobutyl-12-methyl-N-(2-(3-methylisoxazol-5-yl)ethyl)-7,11,14,20-tetraoxo-7,8,9,10,11,12,13,14,17,18,19,19a,20,21,22,23-hexadecahydro-16H-pyrido[2′,11:6,7][1]oxa[4,7,10,14]tetraazacycloheptadecino[17,16-c]quinoline-9-carboxamide] |
